Experimental data as given in PMC7933434, “Entropy-driven binding of gut bacterial β-glucuronidase inhibitors ameliorates irinotecan-induced toxicity” (Communications Biology, 2021).
Several values for one entry are separate records, joined by “and”; a condition that tells them apart may be missing. Equal entries are not always repeated.

Legend:
BdGUS = BdGUS (Bifidobacterium dentium, UniProt D2Q7B1); assay: biochemical; format: binding
[1] = target: BdGUS (Bifidobacterium dentium GUS) (Bifidobacterium dentium, UniProt D2Q7B1); assay: biochemical; design: GUS activity (hydrolysis rate of MUG) / 1/v: unit not given here
[2] = target: T1, GUS activity in live E. coli cells (Escherichia coli, UniProt P05804); assay: GUS activity in live E. coli cells; format: cell-based; settings: E. coli cells (OD600 = 1.89) treated for 30 min, then GUS activity measured
T1 construct: endogenous in cells
Procedure: To examine if inhibitors 2–4 could inhibit GUS activity in vivo, E. coli cells (OD600 = 1.89) were treated with each of 2–4 for 30 min, after which GUS activity was measured. […]; 3, 18.6 nM; and 4, 3.69 nM (Supplementary Fig. 9a). […]. […] Additionally, to evaluate cell viability, E. coli cultures were treated with ampicillin (positive control), DMSO, or inhibitors 2–4 (100 μM) for 6 h.
Supplementary Figure 9 Inhibitors 2–4 sho w in hi biti on ag ai n st G US acti vity in l i ve E. co li cell s. (a) GUS activity was measured in live E. coli. Af t e r E. coli were incubated with DMSO or an inhibitor ( 2–4), GUS activity was measured using 4-methylumbelliferyl-β-glucuronide as the substrate. The release of fluorescent 4-methylumbelliferone was detected at 445 nm (excitation, 345 nm). Compared with the negative c ont rol (DMSO ), […]
[…]. (b) Colony formation assay. None of the inhibitors affected bacterial growth. As a negative control, E. coli cells were incubated with ampicillin (100 μg/mL). Results are expressed as the mean of triplicate samples ± SEM.
(1 picture or pasted object on this page, not shown here)

HsGUS (human GUS) = target: T2, HsGUS (human GUS) (Homo sapiens, UniProt P08236); assay: GUS inhibition assay, hydrolysis of 4-methylumbelliferyl-β-glucuronide, HsGUS; format: biochemical; design: GUS activity (hydrolysis rate of MUG): unit not given here; settings: for GUS activity (hydrolysis rate of MUG): [Inhibitor 2] =2 μM
T2 construct: HsGUS was prepared as described[37]; made in house
T2 sequence (P08236 23-651): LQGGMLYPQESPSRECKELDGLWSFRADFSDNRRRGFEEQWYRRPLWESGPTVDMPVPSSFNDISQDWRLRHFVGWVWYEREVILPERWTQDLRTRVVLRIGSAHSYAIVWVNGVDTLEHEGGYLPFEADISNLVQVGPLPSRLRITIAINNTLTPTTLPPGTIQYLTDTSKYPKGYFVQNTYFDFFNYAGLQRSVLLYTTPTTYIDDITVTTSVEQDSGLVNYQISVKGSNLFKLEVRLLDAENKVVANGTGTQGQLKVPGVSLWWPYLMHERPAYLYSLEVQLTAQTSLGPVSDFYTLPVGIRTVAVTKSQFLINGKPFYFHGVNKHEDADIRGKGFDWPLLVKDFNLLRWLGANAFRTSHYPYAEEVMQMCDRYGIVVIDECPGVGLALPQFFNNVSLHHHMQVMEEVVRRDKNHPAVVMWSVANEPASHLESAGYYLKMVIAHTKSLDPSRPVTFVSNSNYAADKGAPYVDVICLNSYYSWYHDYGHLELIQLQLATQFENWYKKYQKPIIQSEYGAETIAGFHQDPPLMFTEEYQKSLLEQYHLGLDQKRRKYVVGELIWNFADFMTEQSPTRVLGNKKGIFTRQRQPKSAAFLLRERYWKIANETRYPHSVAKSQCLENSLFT

[3] = BdGUS, Tris buffer (250 mM NaCl, 20 mM Tris, pH 8.0), 298 K
[4] = [Inhibitor 2] = 3.75 μM, [MUG] 0.375 mM
[5] = [Inhibitor 2] = 3.75 μM, [MUG] 0.75 mM
[6] = [Inhibitor 2] = 3.75 μM, [MUG] 1.5 mM
[7] = [Inhibitor 2] = 3.75 μM, [MUG] 3 mM
[8] = [Inhibitor 2] = 7.5 μM, [MUG] 0.375 mM
[9] = [Inhibitor 2] = 7.5 μM, [MUG] 0.75 mM
[10] = [Inhibitor 2] = 7.5 μM, [MUG] 1.5 mM
[11] = [Inhibitor 2] = 7.5 μM, [MUG] 3 mM
[12] = [Inhibitor 2] = 15 μM, [MUG] 0.375 mM
[13] = [Inhibitor 2] = 15 μM, [MUG] 0.75 mM
[14] = [Inhibitor 2] = 15 μM, [MUG] 1.5 mM
[15] = [Inhibitor 2] = 15 μM, [MUG] 3 mM
[16] = [Inhibitor 2] = 30 μM, [MUG] 0.375 mM
[17] = [Inhibitor 2] = 30 μM, [MUG] 0.75 mM
[18] = [Inhibitor 2] = 30 μM, [MUG] 1.5 mM
[19] = [Inhibitor 2] = 30 μM, [MUG] 3 mM

Sequence of BdGUS (Bifidobacterium dentium GUS) (D2Q7B1 1-668): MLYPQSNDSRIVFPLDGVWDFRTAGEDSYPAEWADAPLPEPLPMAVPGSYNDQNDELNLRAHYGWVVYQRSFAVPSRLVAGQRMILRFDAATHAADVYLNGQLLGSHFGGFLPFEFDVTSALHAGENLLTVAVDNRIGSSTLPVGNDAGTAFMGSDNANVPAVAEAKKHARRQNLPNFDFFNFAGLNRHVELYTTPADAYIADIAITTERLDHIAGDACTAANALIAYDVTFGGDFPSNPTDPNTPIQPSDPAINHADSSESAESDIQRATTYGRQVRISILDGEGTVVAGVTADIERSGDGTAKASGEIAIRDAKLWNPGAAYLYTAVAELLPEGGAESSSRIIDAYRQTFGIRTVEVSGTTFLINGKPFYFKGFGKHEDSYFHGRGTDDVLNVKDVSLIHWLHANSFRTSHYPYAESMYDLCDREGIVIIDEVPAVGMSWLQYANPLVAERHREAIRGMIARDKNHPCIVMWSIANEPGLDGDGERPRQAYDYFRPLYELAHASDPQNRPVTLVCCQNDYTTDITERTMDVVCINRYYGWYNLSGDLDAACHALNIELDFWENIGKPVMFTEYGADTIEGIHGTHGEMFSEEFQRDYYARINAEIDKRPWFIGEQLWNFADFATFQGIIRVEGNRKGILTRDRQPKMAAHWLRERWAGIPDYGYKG
Sequence of BdGUS (D2Q7B1 entry or part of it): as the sequence (D2Q7B1 1-668) above
T1 sequence (P05804 whole entry): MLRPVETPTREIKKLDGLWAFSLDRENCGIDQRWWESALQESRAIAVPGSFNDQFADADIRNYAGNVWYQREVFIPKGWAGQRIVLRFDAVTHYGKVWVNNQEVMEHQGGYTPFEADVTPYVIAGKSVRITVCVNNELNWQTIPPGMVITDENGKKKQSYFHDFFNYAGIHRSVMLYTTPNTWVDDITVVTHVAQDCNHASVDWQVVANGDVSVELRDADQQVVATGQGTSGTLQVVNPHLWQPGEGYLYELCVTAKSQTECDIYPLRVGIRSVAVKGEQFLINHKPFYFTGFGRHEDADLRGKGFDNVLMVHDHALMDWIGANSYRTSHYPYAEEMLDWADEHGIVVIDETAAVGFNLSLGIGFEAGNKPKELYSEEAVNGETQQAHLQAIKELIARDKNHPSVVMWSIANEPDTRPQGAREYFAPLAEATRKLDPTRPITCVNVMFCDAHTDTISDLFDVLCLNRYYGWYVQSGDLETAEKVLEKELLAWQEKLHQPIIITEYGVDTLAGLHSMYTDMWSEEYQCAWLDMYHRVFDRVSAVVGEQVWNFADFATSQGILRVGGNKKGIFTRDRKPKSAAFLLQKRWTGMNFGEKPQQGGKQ

In the case of `CCC[C@@H]1NC[C@@H](O)[C@H](O)[C@H]1C(=O)O` [Inhibitor 2, C6-propyl UIFG], the “ΔΔH1–2 (enthalpy penalty of 2 relative to 1)” value (BdGUS; BdGUS in Tris buffer) is reported as “+8.5 kcal mol^−1”, the “–TΔΔS1–2 (2 relative to 1)” value (BdGUS; BdGUS in Tris buffer) is reported as -25.9 kJ/mol and the “entropy contribution to binding” value (BdGUS; BdGUS in Tris buffer, sign (positive = favourable)) is reported as “+4.6 kcal mol^−1”. For the same compound, the Kd (BdGUS; [3]) was 14.5 ± 3.55 µM, the ΔG (BdGUS; [3]) was “–6.60 ± 0.15 kcal/mol” and the ΔH (BdGUS; [3]) was “–1.97 ± 0.15 kcal/mol”. For the same compound, the “—TΔS” value (BdGUS; [3]) was “–4.64 ± 0.30 kcal/mol”, the Ki ([1]; BdGUS, 50 mM HEPES pH 7.5, 37 °C) was 4.9 ± 1.2 µM and the 1/v [1, 4] was 0.7586 and 0.7898 and 0.7689. The “GUS activity (hydrolysis rate of MUG)” value [1, 4] was 0.2944 and 0.2827 and 0.2904, the 1/v [1, 5] was 0.5053 and 0.4969 and 0.4765 and the “GUS activity (hydrolysis rate of MUG)” value [1, 5] was 0.4419 and 0.4494 and 0.4686. For the same compound, the 1/v [1, 6] was 0.3454 and 0.3517 and 0.3523, the “GUS activity (hydrolysis rate of MUG)” value [1, 6] was 0.6465 and 0.6349 and 0.6338 and the 1/v [1, 7] was 0.3078 and 0.2975 and 0.297. The “GUS activity (hydrolysis rate of MUG)” value [1, 7] was 0.7254 and 0.7507 and 0.7517, the 1/v [1, 8] was 0.9443 and 1.067 and 1.0389 and the “GUS activity (hydrolysis rate of MUG)” value [1, 8] was 0.2365 and 0.2092 and 0.2149. The 1/v [1, 9] was 0.6301 and 0.6229 and 0.6281, the “GUS activity (hydrolysis rate of MUG)” value [1, 9] was 0.3544 and 0.3585 and 0.3555 and the 1/v [1, 10] was 0.4203 and 0.4167 and 0.4011. For the same compound, the “GUS activity (hydrolysis rate of MUG)” value [1, 10] was 0.5313 and 0.5358 and 0.5568, the 1/v [1, 11] was 0.3397 and 0.3356 and 0.3208 and the “GUS activity (hydrolysis rate of MUG)” value [1, 11] was 0.6574 and 0.6654 and 0.6962. The 1/v [1, 12] was 1.396 and 1.589 and 1.568, the “GUS activity (hydrolysis rate of MUG)” value [1, 12] was 0.1599 and 0.1405 and 0.1424 and the 1/v [1, 13] was 0.9143 and 0.8906 and 0.8101. For the same compound, the “GUS activity (hydrolysis rate of MUG)” value [1, 13] was 0.2442 and 0.2507 and 0.2757, the 1/v [1, 14] was 0.5734 and 0.5628 and 0.516 and the “GUS activity (hydrolysis rate of MUG)” value [1, 14] was 0.3894 and 0.3968 and 0.4327. For the same compound, the 1/v [1, 15] was 0.4154 and 0.412 and 0.4013, the “GUS activity (hydrolysis rate of MUG)” value [1, 15] was 0.5375 and 0.5419 and 0.5564 and the 1/v [1, 16] was 2.375 and 2.7756 and 2.7044. The “GUS activity (hydrolysis rate of MUG)” value [1, 16] was 0.09401 and 0.08045 and 0.08257, the 1/v [1, 17] was 1.493 and 1.508 and 1.184 and the “GUS activity (hydrolysis rate of MUG)” value [1, 17] was 0.1495 and 0.1481 and 0.1887. For the same compound, the 1/v [1, 18] was 0.8717 and 0.8385 and 0.8277, the “GUS activity (hydrolysis rate of MUG)” value [1, 18] was 0.2562 and 0.2663 and 0.2698 and the 1/v [1, 19] was 0.5634 and 0.5659 and 0.5111. For the same compound, the “GUS activity (hydrolysis rate of MUG)” value [1, 19] was 0.3964 and 0.3946 and 0.4369, the IC50 [2] was 1.2 µM and the Ki (HsGUS (human GUS); HsGUS, 50 mM sodium acetate pH 4.5, 37 °C) was 36.1 ± 7.5 µM. The “GUS activity (hydrolysis rate of MUG)” value (HsGUS (human GUS); [MUG] 0.1 mM) was 948.853 and 951.385, the “GUS activity (hydrolysis rate of MUG)” value (HsGUS (human GUS); [MUG] 0.2 mM) was 1632.03 and 1685.82 and the “GUS activity (hydrolysis rate of MUG)” value (HsGUS (human GUS); [MUG] 0.4 mM) was 2642.25 and 2523.4. For the same compound, the “GUS activity (hydrolysis rate of MUG)” value (HsGUS (human GUS); [MUG] 0.6 mM) was 3352.21 and 3311.67.
